We go through 73 molecules from PubChem BioAssay AID179 (DTP/NCI, 2004).

The assay concerns CEM cells HIV-1 protection, formazan growth assay. The assay can be described thus: NCI AIDS Antiviral Assay. To be noted: for IC50: measured here: growth of uninfected CEM cells. In outline: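 Steps: treat uninfected and HIV-1-infected human CEM cells at five drug levels; quantify growth by soluble formazan; retest any compound reaching 50% protection; classify actives from the retest.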

“And” between values parts separate entries of the source, which are not always exact repeats. Equal entries are not always repeated. The source made the active and inactive calls.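 The calls were made as follows: active = compounds giving half or more protection of infected cells from virus-caused growth loss, again on retest; inactive = the rest.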 Bounds are passed on as bounds.

As to `CCOC(=O)C(=Cc1ccc(Br)cc1)C(=O)OCC`, the EC50 is over 57.5 µM and the IC50 stood at 11.7 µM.

In the case of `Cc1cn(C2CC(N=[N+]=[N-])C(COP(=O)(O)OCC3CCC(n4ccc(N)nc4=O)O3)O2)c(=O)[nH]c1=O` (stereo not given), the EC50 was 0.0468 µM and the IC50 came to 20 µM.

For the molecule `CN(C)C12CCCCCCC1S(=O)(=O)C2` (stereo not given), the EC50 was over 363 µM and the IC50 was found to be 302 µM.

For `O=[N+]([O-])/C(C(Cl)=C(Cl)Cl)=C(/Sc1ccccc1)N1CCOCC1`, the EC50 is over 200 µM and the half-inhibitory concentration (IC50) amounted to 2.63 µM.

As for `CN(C)c1cccc2c(S(=O)O)cccc12`, the EC50 was over 200 µM and the IC50 is over 200 µM.

Turning to `CCOC(=O)C(CC/C=C\c1ccccc1)N1CCC[C@H]1C(=O)OC` (stereo not given in full), the outcome was inactive.

Regarding `Cc1[nH]c(=O)nc(NCCNCCO)c1C(=O)Nc1cccc2cc3ccccc3cc12`, the EC50 is over 200 µM and the IC50 was over 200 µM.

Take `CCc1cc(-c2nsc(=O)o2)c(S(=O)(=O)CC)s1`: the EC50 was over 200 µM and the IC50 came to 93.3 µM.

Take `N#CCCN(CCC#N)c1ccc(/C=C2/C=C(c3ccccc3)OC2=O)cc1`: the EC50 is over 14.1 µM and the IC50 was over 14.1 µM.

On to `CC1CN(C(=O)OCC23COC4(C)CCC(C)(OC2)N34)CC(C)O1` (stereo not given), for which the EC50 was over 200 µM and the IC50 was over 200 µM.

Consider `O=c1cc(P(=O)(O)O)[nH]c(=O)[nH]1`, for which the outcome was inactive.

Turning to `Cc1[nH]c(=O)n2c(C)nnc2c1C(=O)O`, the result was inactive.

Consider `O=C(O)C1(Cc2ccccc2)Cc2ccccc2C1`, for which the EC50 was over 200 µM and the concentration for half-maximal inhibition (IC50) is over 200 µM.

Take `CCOC(=O)C(=Cc1ccco1)C(=O)OCC`: the EC50 is over 151 µM and the IC50 amounted to 85.1 µM.

`O=C(O)c1ccccc1Sc1ccccc1[N+](=O)[O-]`: the result was inactive.

For the molecule `O=c1c2ccccc2nc(-c2ccc(Br)cc2)n1NC1OC(CO)C(O)C(O)C1O` (stereo not given), the outcome was inactive.

As to `COc1cccc(C2C(C(=O)Nc3cc(=O)n(C)c(=O)n3C)=C(C)NC(C)=C2C(=O)Nc2cc(=O)n(C)c(=O)n2C)c1O`, the EC50 is over 219 µM and the IC50 is 74.1 µM.

For the molecule `C=CCCCCCCCCCC(C(=O)O)C(=O)O`, the EC50 was over 977 µM and the IC50 was 550 µM.

As for `Cc1ccccc1NC(=O)C(=O)C(C1OC(=O)c2ccccc21)[N+](=O)[O-]` (stereo not given), the EC50 is over 708 µM and the IC50 was determined as 339 µM.

On to `COc1ccc(N2C(=O)C3CC(c4ccc(C)cc4)c4c([nH]c5ccccc45)C3C2=O)cc1` (stereo not given), for which the EC50 was over 2.4 µM and the IC50 is over 2.4 µM.

On to `Cc1cc(C)c2c(c1)C(=O)c1c(O)ccc(O)c1C2=O`, for which the result was inactive.

For the molecule `COc1ccc2oc(=N)c(C(N)=S)cc2c1`, the EC50 was over 200 µM and the IC50 stood at 26.9 µM.

With `Brc1csnn1`, the EC50 is over 200 µM and the IC50 is over 200 µM.

Turning to `O=c1n(C2CCCCC2)c(=C(Cl)Cl)c(=C(Cl)Cl)n1C1CCCCC1`, the EC50 is over 200 µM and the IC50 is over 200 µM.

`C1=CN2C(c3ccccc3)=NON(c3ncccn3)C2N=C1` (stereo not given): the EC50 was over 46.8 µM and the concentration for half-maximal inhibition (IC50) is over 46.8 µM.

`C=C1CC(Cn2cc(C)c(=O)[nH]c2=O)(c2ccc(Cl)cc2)OC1=O` (stereo not given): the EC50 was over 20 µM and the IC50 turned out to be 0.617 µM.

For `CC(=O)/C=C/CCC(=O)/C=C/C(=O)OC(CCC(=O)/C=C/C(=O)O)CC(C)=O` (stereo not given), the EC50 was over 200 µM and the IC50 is 115 µM.

Regarding `COC(=O)C1(Cc2ccc3c(c2)CCC3)Cc2ccccc2C1`, the EC50 is over 200 µM and the IC50 was 35.5 µM.

Regarding `CS(=O)(=O)Nc1ccc2ccccc2c1-c1c(NS(C)(=O)=O)ccc2ccccc12`, the EC50 was over 50.1 µM and the IC50 worked out at 47.9 µM.

In the case of `CCc1cccc(C)c1NS(=O)(=O)c1ccccc1`, the outcome was inactive.

As to `COC1=C(Br)[C@H](O)[C@@]2(C=C1Br)CC(C(=O)NCCCOc1c(Br)cc(C(O)CNC(C)=O)cc1Br)=NO2` (stereo not given in full), the EC50 was over 10 µM and the IC50 turned out to be 6.61 µM.

As for `CC(C)=CCN1Cc2c(Cl)ccc3[nH]c(=S)n(c23)C[C@@H]1C`, the EC50 is 0.00224 µM and the IC50 was 5.89 µM.

Consider `NC(=O)c1cnc2sc3ccccc3n2c1=O`, for which the EC50 is over 200 µM and the IC50 is over 200 µM.

On to `Cc1nc(Nc2ccc(Cl)cc2)sc1C(=O)NNc1ccc([N+](=O)[O-])cc1[N+](=O)[O-]`, for which the EC50 was over 39.8 µM and the IC50 was found to be 25.1 µM.

In the case of `CCC(CO)NC(=O)Nc1ccc(S(=O)(=O)c2ccc([N+](=O)[O-])cc2)cc1` (stereo not given), the EC50 was over 200 µM and the IC50 turned out to be 12 µM.

As for `CC1(c2cc(Cl)c(Cl)cc2Cl)NC(=O)NC1=O` (stereo not given), the result was inactive.

For the molecule `CN(C)c1ccc(/C=C(\C#N)c2ccc(Br)cc2Br)cc1`, the EC50 was over 200 µM and the IC50 stood at 3.39 µM.

Take `CC1CCC2(OC1)OC1CC3C4CCC5CC(O)CCC5(C)C4CC(=O)OC3(C)C1C2C` (stereo not given): the result was inactive.

Turning to `CC(=O)NNC(=S)/N=C/C(C(=O)Nc1ccccc1)=C(/C)O`, the EC50 is over 200 µM and the IC50 was over 200 µM.

`O=P(c1ccccc1)(c1ccccc1)c1ccc2c(c1)OCCOCCOCCOCCO2`: the EC50 is over 200 µM and the IC50 was over 200 µM.

For `CCOC(=O)C1=C(Nc2cccc3ccccc23)OC/C1=N\NC(=O)c1ccccc1O`, the EC50 was over 60.3 µM and the IC50 worked out at 17.4 µM.

On to `CN(C)C(F)=PC(F)(F)F` (stereo not given), for which the EC50 was over 251 µM and the IC50 was over 251 µM.

In the case of `CC(C)=CCC[C@@H](C)C1=C(Nc2ccccc2Cl)C(O)=C(C)C(=O)C1=O`, the EC50 is over 200 µM and the IC50 is 1.55 µM.

For `COC(=O)C(CCC1(C)OCCO1)C(C)=O` (stereo not given), the EC50 is 31.6 µM and the IC50 amounted to 251 µM.

As for `CC(C)(C)OC(=O)[C@H]1CCC(=S)N1Cc1ccccc1`, the EC50 was over 200 µM and the IC50 is over 200 µM.

For the molecule `COc1cc(-c2cc(=O)c3c(O)c(OC)c(OC)cc3o2)ccc1O`, the EC50 was over 11 µM and the IC50 is over 11 µM.

Take `CC(NC(=O)Cc1ccccc1)NC(=O)C(C)C(=O)NCc1ccccc1` (stereo not given): the result was inactive.

For the molecule `N#C/C(=C/n1c(=S)[nH]c2ccc([N+](=O)[O-])cc21)c1ccc([N+](=O)[O-])cc1`, the EC50 is over 200 µM and the 50% inhibitory concentration (IC50) is 117 µM.

For the molecule `NNC(=O)c1c(SCc2ccccc2)nc2c3ccccc3ccn12`, the EC50 is over 200 µM and the IC50 came to 15.8 µM.

Consider `CC(C)(C)c1cc(-c2c3nc(c(-c4cc(C(C)(C)C)cc(C(C)(C)C)c4)c4ccc([nH]4)c(-c4cc(C(C)(C)C)cc(C(C)(C)C)c4)c4nc(c(-c5cc(C(C)(C)C)cc(C(C)(C)C)c5)c5ccc2[nH]5)C=C4)C=C3)cc(C(C)(C)C)c1`, for which the EC50 is over 33.9 µM and the IC50 was over 33.9 µM.

In the case of `Cc1ccc(N=Nc2c(C)nn(C(=O)CC(=O)Nc3ccccc3)c2C)cc1C`, the EC50 is over 200 µM and the IC50 is over 200 µM.

For the molecule `O=c1n(CCCN2CCN(c3cccc(Cl)c3)CC2)nc2n1-c1ccc3ccccc3c1SC2`, the EC50 is over 200 µM and the IC50 is over 200 µM.

As for `Oc1ccc(I)c2cccnc12`, the EC50 was over 182 µM and the IC50 worked out at 2.19 µM.

For the molecule `COc1c(Br)cc(/C=C(\C#N)c2ccccn2)cc1Br`, the EC50 is over 100 µM and the IC50 is over 100 µM.

With `Cc1ccccc1NC(=O)CC(=O)NNC(Sc1ccccc1)c1cc(N=Nc2ccc(Br)cc2)ccc1O` (stereo not given), the EC50 was over 100 µM and the IC50 is 1.23 µM.

For `C[C@]12CC[C@@H]3c4cc(Br)c(O)c(Br)c4CC[C@H]3[C@@H]1CCC2=O`, the EC50 is over 200 µM and the concentration for half-maximal inhibition (IC50) is 33.1 µM.

As for `O=C1c2ccccc2CC1(Br)C(Br)c1ccccc1` (stereo not given), the EC50 was over 200 µM; the IC50 was 10.7 µM and 10 µM.

Regarding `C/C(C=O)=C\c1ccc(F)cc1`, the EC50 is over 219 µM and the 50% inhibitory concentration (IC50) is over 219 µM.

As for `CCOC(=O)c1c(OCCCc2ccc(F)cc2)cc2ccc3ccccc3c2c1OCCCc1ccc(F)cc1`, the EC50 was over 18.2 µM and the IC50 is over 18.2 µM.

As to `CCOC(=O)C1=CCC2c3[nH]c4ccccc4c3CCN2C1=O` (stereo not given), the EC50 is over 16.2 µM and the IC50 came out at 9.12 µM.

`CCCCCCCCCCCCCCCC1(OC)C[N+](C)(C)CCO1` (stereo not given): the EC50 was over 200 µM and the IC50 was determined as 1 µM.

`O=C(OCCN1CCCC1)c1cc2ccccc2n1Cc1ccccc1`: the EC50 was over 200 µM and the IC50 worked out at 36.3 µM.

Consider `COC(=O)CCC(=O)NC1C2CC3CC(C2)CC1C3` (stereo not given), for which the EC50 is over 135 µM and the IC50 was over 135 µM.

Take `Cc1[nH]c(NC(=O)C(=O)O)c(C#N)c1C`: the EC50 was over 200 µM and the IC50 is over 200 µM.

Consider `BrC(Br)=C1C(=C(Br)Br)C(Br)C1Br` (stereo not given), for which the result was inactive.

As for `CC(C)[C@H]1CO[C@@H]2CCC(=O)N12`, the EC50 was over 1050 µM and the IC50 was over 1050 µM.

As for `C=CC[C@H]1[C@@H](O[Si](C)(C)C(C)(C)C)[C@H](n2ccc(=O)[nH]c2=O)O[C@@H]1CO[Si](C)(C)C(C)(C)C`, the EC50 was over 200 µM and the IC50 turned out to be 10 µM.

In the case of `O=[N+]([O-])c1ccc(Cl)c([N+](=O)[O-])c1`, the EC50 is over 200 µM and the IC50 is 3.31 µM.

On to `N#CC(/C(=N/NC(=O)C(=O)NN)C(=O)Nc1nc([N+](=O)[O-])cs1)c1ccc(Cl)cc1` (stereo not given), for which the EC50 is 95.5 µM and the IC50 is 209 µM.

For the molecule `CC1OCC2OC(C)OC(C3C4=C(CC(C)(C)CC4=O)OC4=C3C(=O)CC(C)(C)C4)C2O1` (stereo not given), the EC50 is over 562 µM and the IC50 amounted to 550 µM.

On to `O=C(O)CC(NC(=O)Nc1ccc([N+](=O)[O-])cc1)C(=O)Nc1ccc([N+](=O)[O-])cc1` (stereo not given), for which the EC50 is over 200 µM and the IC50 is over 200 µM.

Take `CCOP(=O)(OCC)/C(C)=N/O`: the EC50 was over 1290 µM and the IC50 is over 1290 µM.

Consider `CS/C(=N/N=C/c1ccc2ccccc2n1)SS/C(=N/N=C\c1ccc2ccccc2n1)SC`, for which the EC50 is over 200 µM and the IC50 worked out at 178 µM.

As a reminder, the EC50 is the midpoint of the concentration-response curve. One may read the IC50 as the midpoint of a concentration-inhibition curve.
